Results on eleven molecules are retold here after ChEMBL document CHEMBL1201862, “PubChem BioAssay data set” (2004).

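These data come from cells grown in 96-well plates and exposed to compound for 48 hours at five concentrations. The concentration for 50% growth inhibition is given as GI50.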 Calls of active or inactive are those of the source. No stated cut-off is given here; in the data, active = GI50 up to about 1.1 µM and inactive = higher. Positions of bridges follow the written chain, without caps; N, C: chain ends. Non-standard residues stand in square brackets, D forms with d. Residues, ends and D or L forms follow the SMILES beside them. Aib = CC(C)(N)C(=O)O; βAla = NCCC(=O)O

Among the test systems are 786-0; HCC 2998; HOP-92; HT-29; IGROV-1; K562; M14; MCF7; MOLT-4; NCI-H460; OVCAR-3; OVCAR-5; SF-268; SF-539; SNB-19; SNB-75; T47D; UACC-62; UO-31; CAKI-1.
What all share (experiment): DTP human tumour cell line panel, 48 h

For orientation: GI50 means the concentration that inhibits growth by half. As to `COc1ccc2nc(-c3ccc(O)cc3)cc(O)c2c1`, the GI50 is 2.09 µM (inactive) with 786-0; 0.9 µM (active) with HCC 2998; 0.631 µM (active) in the assay on HOP-92; 2.26 µM (inactive) in the assay on HT-29; 3.87 µM (inactive) in the assay on IGROV-1; 0.598 µM (active) in the assay with K562. The concentration for 50% growth inhibition (GI50) in the assay with M14 is 0.857 µM (active); in the assay with MCF7, 3.52 µM (inactive); in the assay on MOLT-4, 1.41 µM (inactive); with NCI-H460, 1.95 µM (inactive); in the assay with OVCAR-3 it was 0.887 µM (active); in the assay on OVCAR-5 it was > 25.9 µM (inactive). Besides, the GI50 in the assay with SF-268 is 0.764 µM (active); with SF-539, 0.826 µM (active); with SNB-19 it was 3.75 µM (inactive); with SNB-75 it was 0.434 µM (active); in the assay with T47D, 4.73 µM (inactive); in the assay with UACC-62, 0.697 µM (active). For the same molecule, the GI50 in the assay with UO-31 is 3.14 µM (inactive).
With `CCOC(=O)Cn1c(C(F)(F)F)nc2nc(Cl)c(Cl)nc21`, the GI50 is > 76.9 µM (inactive) with 786-0; 3.12 µM (inactive) with CAKI-1; 24.7 µM (inactive) in the assay with HOP-92; 51.9 µM (inactive) with HT-29; 22.8 µM (inactive) in the assay with IGROV-1; 26.7 µM (inactive) in the assay on K562. The GI50 with M14 was 41.3 µM (inactive); in the assay with MCF7 it was 23.3 µM (inactive); with MOLT-4, 26.6 µM (inactive); in the assay on NCI-H460, 27.9 µM (inactive); in the assay on OVCAR-3 it was 16.3 µM (inactive); in the assay with OVCAR-5, > 100 µM (inactive). Further, the GI50 with SF-268 is 34 µM (inactive); with SF-539, > 55.7 µM (inactive); in the assay with SNB-19, 34.4 µM (inactive); with SNB-75 it was 55.2 µM (inactive); in the assay on T47D, 33.3 µM (inactive); in the assay on UACC-62, 24.7 µM (inactive). The GI50 in the assay with UO-31 was 3.44 µM (inactive).
Regarding `CCC1([N+](=O)[O-])CC2C=CC1C2` (centres undefined), the GI50 was > 100 µM (inactive) with 786-0; > 100 µM (inactive) in the assay on CAKI-1; 62.7 µM (inactive) with HOP-92; > 100 µM (inactive) in the assay on HT-29; > 100 µM (inactive) in the assay with IGROV-1; > 100 µM (inactive) in the assay with K562. Besides, the GI50 with M14, in the assay with MCF7, with MOLT-4, in the assay on NCI-H460, in the assay with OVCAR-3 and with OVCAR-5 was > 100 µM (inactive) in each case. Further, the GI50 in the assay with SF-268, in the assay with SF-539, in the assay with SNB-19, in the assay with SNB-75, with T47D and with UACC-62 was > 100 µM (inactive) in each case. Besides, the GI50 with UO-31 is > 100 µM (inactive).
With `O=C(NCc1ccccc1)c1cc2ccccc2o/c1=N\c1ccccc1F`, the GI50 with 786-0 was 10.8 µM (inactive); in the assay with CAKI-1, 14 µM (inactive); with HCC 2998, 23.1 µM (inactive); with HOP-92, 20 µM (inactive); in the assay on HT-29, 45.8 µM (inactive); in the assay with IGROV-1, 24 µM (inactive). Besides, the GI50 is > 100 µM (inactive) in the assay on K562; 34.4 µM (inactive) in the assay on M14; 33.7 µM (inactive) in the assay with MCF7; > 100 µM (inactive) with MOLT-4; 41.7 µM (inactive) with NCI-H460; 46 µM (inactive) in the assay with OVCAR-3. The GI50 was 43.4 µM (inactive) in the assay on OVCAR-5; 30.8 µM (inactive) in the assay with SF-268; 25.6 µM (inactive) in the assay on SNB-19; 20 µM (inactive) with SNB-75; 16.6 µM (inactive) in the assay on T47D; 29.9 µM (inactive) in the assay with UACC-62. The GI50 in the assay with UO-31 is 8.39 µM (inactive).
Regarding `CSC1(SC)CCCCCCCCCCC1`, the GI50 with 786-0 was 37.1 µM (inactive); with CAKI-1 it was 58.1 µM (inactive); with HCC 2998, 20.4 µM (inactive); in the assay on HOP-92 it was 36.8 µM (inactive); in the assay on HT-29, 31.7 µM (inactive); in the assay on IGROV-1, 41.8 µM (inactive). The GI50 was 32 µM (inactive) in the assay on K562; 47.5 µM (inactive) in the assay with M14; 21.3 µM (inactive) in the assay with MCF7; 33.7 µM (inactive) in the assay on MOLT-4; 29.8 µM (inactive) in the assay on NCI-H460; 27.8 µM (inactive) with OVCAR-3. In addition, the GI50 with OVCAR-5 is 53.2 µM (inactive); with SF-268 it was 53.7 µM (inactive); in the assay with SF-539 it was > 100 µM (inactive); with SNB-19 it was 53.5 µM (inactive); in the assay with T47D it was 25 µM (inactive); in the assay on UACC-62, 46 µM (inactive). The GI50 in the assay with UO-31 was 31.3 µM (inactive).
Take `COc1ccc(/N=N/c2c(C)c(C#N)c(=S)n(C3OC(COC(C)=O)C(OC(C)=O)C(OC(C)=O)C3OC(C)=O)c2-c2ccccc2)cc1` (centres undefined): the GI50 in the assay with 786-0 was 3.12 µM (inactive); in the assay with CAKI-1, 9.48 µM (inactive); in the assay with HCC 2998, 23.4 µM (inactive); with HOP-92, 4.01 µM (inactive); in the assay with HT-29, 5.94 µM (inactive); with K562 it was 4.52 µM (inactive). Moreover, the GI50 in the assay with M14 was 1.94 µM (inactive); with MCF7 it was 4.62 µM (inactive); with MOLT-4, 3.08 µM (inactive); with NCI-H460, 4.76 µM (inactive); with OVCAR-3 it was 13.9 µM (inactive); in the assay on OVCAR-5 it was 13.2 µM (inactive). Moreover, the GI50 with SF-268 was 9.59 µM (inactive); in the assay on SF-539, > 10 µM (inactive); in the assay on SNB-19, 11 µM (inactive); with T47D, 19.4 µM (inactive); in the assay on UO-31 it was 39.8 µM (inactive).
In the case of `Cc1ccc(S(=O)(=O)N2CCSCCSCCSCCN(S(=O)(=O)c3ccc(C)cc3)CC2)cc1`, the GI50 in the assay on 786-0, in the assay with HCC 2998, in the assay on HOP-92, with HT-29, in the assay with IGROV-1 and in the assay with K562 was > 100 µM (inactive) throughout. The GI50 in the assay with M14, in the assay with MCF7, with MOLT-4, in the assay on NCI-H460, in the assay with OVCAR-3 and in the assay with OVCAR-5 was > 100 µM (inactive) each time. Further, the GI50 in the assay with SF-268 is > 100 µM (inactive); in the assay with SF-539 it was > 100 µM (inactive); in the assay with SNB-19, > 100 µM (inactive); in the assay on SNB-75, 61 µM (inactive); in the assay with T47D it was > 100 µM (inactive); in the assay on UACC-62, > 100 µM (inactive). The GI50 with UO-31 is > 100 µM (inactive).
As for `COc1ccc(Nc2nc(N)c(C(=O)c3ccco3)s2)cc1`, the GI50 in the assay with 786-0 is > 40 µM (inactive); with CAKI-1 it was 50 µM (inactive); with HCC 2998, 15.7 µM (inactive); in the assay with HOP-92 it was > 92.7 µM (inactive); with HT-29 it was 7.78 µM (inactive); in the assay with IGROV-1 it was 10.7 µM (inactive). The GI50 with K562 is 4.72 µM (inactive); in the assay on M14, 65.2 µM (inactive); in the assay with MCF7 it was 6.81 µM (inactive); in the assay with MOLT-4, 3.61 µM (inactive); with NCI-H460, 13.7 µM (inactive); with OVCAR-3, 20.6 µM (inactive). Moreover, the GI50 was > 83.2 µM (inactive) in the assay on OVCAR-5; 39.3 µM (inactive) in the assay on SF-268; 16.6 µM (inactive) with SF-539; > 56.5 µM (inactive) in the assay on SNB-19; > 60.5 µM (inactive) in the assay on T47D; 45.8 µM (inactive) in the assay with UACC-62. Also, the GI50 in the assay on UO-31 was 29.3 µM (inactive).
Turning to `COc1ccc2c3c1O[C@H]1C(=O)C=CC4(n5[nH]c(=O)n(-c6ccccc6)c5=O)C(C2)N(C)CCC314` (some centres undefined), the GI50 with 786-0, with CAKI-1, in the assay on HOP-92, in the assay with HT-29, with IGROV-1 and in the assay with K562 was > 100 µM (inactive) throughout. Also, the GI50 in the assay on M14, in the assay on MCF7, in the assay with MOLT-4, with OVCAR-3, with OVCAR-5 and in the assay on SF-268 was > 100 µM (inactive) throughout. Also, the GI50 with SF-539, in the assay with SNB-19, with T47D, in the assay with UACC-62 and with UO-31 was > 100 µM (inactive) in each case.
As to `CC1=NN2CCC(=O)N=C2S1`, the GI50 in the assay on 786-0, in the assay on CAKI-1, with HOP-92, with HT-29, in the assay with IGROV-1 and in the assay on K562 was > 100 µM (inactive) in each case. The GI50 in the assay with M14, in the assay with MCF7, with MOLT-4, with NCI-H460, with OVCAR-3 and with OVCAR-5 was > 100 µM (inactive) throughout. The GI50 in the assay with SF-268, in the assay with SF-539, in the assay on SNB-19, with SNB-75, with T47D and in the assay on UACC-62 was > 100 µM (inactive) in each case.
In the case of `CC1(C)NC(=O)C(NC(=O)C(N)CC(=O)O)CCCCNC(=O)CCNC1=O` (centres undefined) (H-DK[Aib][βAla]; lactam 2-C; configuration not given here), the GI50 with 786-0, with CAKI-1, with HOP-92, in the assay on HT-29, with IGROV-1 and with K562 was > 100 µM (inactive) throughout. The GI50 in the assay on M14, in the assay with MCF7, with MOLT-4, with NCI-H460, in the assay on OVCAR-3 and with OVCAR-5 was > 100 µM (inactive) each time. The GI50 with SF-268, in the assay on SF-539, in the assay with SNB-19, in the assay on SNB-75, in the assay with T47D and with UACC-62 was > 100 µM (inactive) throughout. In the assay with UO-31, the GI50 is > 100 µM (inactive).
